# Tested on: SARS-CoV-2
# Experiment: microbe, parasite or virus in culture
# Conditions: Severe acute respiratory syndrome coronavirus 2, Vero C1008, 48 h
Compound,IC50,IC50 (read-out: pIC50 (converted))
CC(=O)OCC1=C(C(=O)O)N2C(=O)C(NC(=O)CSc3ccncc3)C2SC1 (stereo unspecified),> 20 µM,> 20 µM
FC(F)(F)c1cccc(C2=CCN(CCc3ccc4ccccc4c3)CC2)c1 [XALIPRODEN],> 20 µM,> 20 µM
CC(=O)OCC(=O)[C@@]1(O)CC[C@H]2[C@@H]3CCC4=CC(=O)C=C[C@]4(C)[C@@]3(F)[C@@H](O)C[C@@]21C [ISOFLUPREDONE ACETATE],> 20 µM,> 20 µM
OCC(O)C(O)C(O)C(O)C(O)CO (stereo unspecified) [PERSEITOL],> 20 µM,> 20 µM
Nc1nc(OCc2ccccc2)c2nc[nH]c2n1 [6-O-BENZYLGUANINE],> 20 µM,> 20 µM
CN1C[C@H]2C[C@@H]1CN2c1cc2c(cc1F)c(=O)c(C(=O)O)cn2C1CC1,> 20 µM,> 20 µM
CC(=O)/N=c1/sc(S(N)(=O)=O)nn1C [METHAZOLAMIDE],> 20 µM,> 20 µM
CCCN(CCC)CCc1cccc2c1CC(=O)N2 [ROPINIROLE],> 20 µM,> 20 µM
CC(C)NCC(O)c1ccc2ccccc2c1 (stereo unspecified) [PRONETALOL],> 20 µM,> 20 µM
CCC1NC(=O)c2cc(S(N)(=O)=O)c(Cl)cc2N1 (stereo unspecified) [QUINETHAZONE],> 20 µM,> 20 µM
CN1CCC(c2c[nH]c3ccc(NC(=O)c4ccc(F)cc4)cc23)CC1,> 20 µM,> 20 µM
O=c1[nH]c(=O)n([C@@H]2O[C@H](CO)[C@@H](O)[C@@H]2F)cc1I [FIALURIDINE],> 20 µM,> 20 µM
OC[C@H]1O[C@@H](n2cnc3c(NCc4ccco4)ncnc32)[C@H](O)[C@@H]1O [KINETIN RIBOSIDE],> 20 µM,> 20 µM
Brc1c(NC2=NCCN2)ccc2nccnc12 [BRIMONIDINE],> 20 µM,> 20 µM
COc1ccc(CC2c3cc(OC)c(OC)cc3CCN2C)cc1OC (stereo unspecified) [LAUDANOSINE],> 20 µM,> 20 µM
O=C(O[C@@H]1Cc2c(O)cc(O)cc2O[C@@H]1c1cc(O)c(=O)c2c(O)c(O)cc([C@H]3Oc4cc(O)cc(O)c4C[C@H]3OC(=O)c3cc(O)c(O)c(O)c3)c2c1)c1cc(O)c(O)c(O)c1 [THEAFLAVIN DIGALLATE],> 20 µM,> 20 µM
CC(C)(O/N=C(\C(=O)N[C@@H]1C(=O)N2C(C(=O)[O-])=C(C[n+]3ccccc3)CS[C@H]12)c1csc(N)n1)C(=O)O [CEFTAZIDIME],> 20 µM,> 20 µM
Cc1ccc(Nc2c(F)cccc2Cl)c(CC(=O)O)c1 [LUMIRACOXIB],> 20 µM,> 20 µM
CC12CCC3C(CC[C@H]4CC(O)CCC34C)C1CCC2O (stereo partly specified),> 20 µM,> 20 µM
Cc1cccc(N(C)C(=S)Oc2ccc3c(c2)C2CCC3C2)c1 (stereo unspecified) [TOLCICLATE],> 20 µM,> 20 µM
OC[C@H]1O[C@@](O)(CO)[C@@H](O)[C@@H]1O,> 20 µM,> 20 µM
CC(=O)c1ccc(C)cc1N[C@H](C(N)=O)c1c(Cl)cccc1Cl,> 20 µM,> 20 µM
CCCC(=O)Nc1ccc(OCC(O)CNC(C)C)c(C(C)=O)c1 (stereo unspecified) [ACEBUTOLOL],> 20 µM,> 20 µM
c1ccc(N2CCN(Cc3nc4ccccc4[nH]3)CC2)nc1 [ABT-724],> 20 µM,> 20 µM
CN(C)Cc1c(C(=O)NCCOc2ccc(C(=O)NO)cc2)oc2ccccc12 [ABEXINOSTAT],> 20 µM,> 20 µM

Compound,IC50,IC50 (read-out: pIC50 (converted))
O=C(O)[C@H]1/C(=C/CO)O[C@@H]2CC(=O)N21 [CLAVULANIC ACID],> 20 µM,> 20 µM
CN(C)CCOC(=O)COc1ccc(Cl)cc1 [MECLOFENOXATE],> 20 µM,> 20 µM
CNCCOC(c1ccccc1)c1ccccc1C (stereo unspecified) [TOFENACIN],> 20 µM,> 20 µM
"COc1ccc(-c2cc(=O)c3cc(OC)ccc3o2)cc1 [6,4'-DIMETHOXYFLAVONE]",> 20 µM,> 20 µM
CCOc1ccc2c3c1O[C@H]1[C@@H](O)C=C[C@H]4[C@@H](C2)N(C)CC[C@@]341 [ETHYLMORPHINE],> 20 µM,> 20 µM
Cc1nc(-c2ccc(C(F)(F)F)cc2)sc1C(=O)NCc1ccc(OC(C)(C)C(=O)O)cc1 [GW590735],> 20 µM,> 20 µM
CS(=N)(=O)CCC(N)C(=O)O (stereo unspecified),> 20 µM,> 20 µM
O=C1NCCN1CCN1CCC(c2cn(-c3ccc(F)cc3)c3ccc(Cl)cc23)CC1 [SERTINDOLE],> 20 µM,> 20 µM
O=C(CCCN1CCC(O)(c2cccc(C(F)(F)F)c2)CC1)c1ccc(F)cc1 [TRIFLUPERIDOL],> 20 µM,> 20 µM
CN1[C@@H]2C[C@@H](OC(=O)[C@H](CO)c3ccccc3)C[C@H]1[C@@H]1O[C@@H]12 [SCOPOLAMINE],> 20 µM,> 20 µM
O=C(c1ccccc1)c1ccc2n1CCC2C(=O)O (stereo unspecified) [KETOROLAC],> 20 µM,> 20 µM
C[N+]1(C)[C@@H]2C[C@@H](OC(=O)C(O)(c3cccs3)c3cccs3)C[C@H]1[C@@H]1O[C@@H]12 [TIOTROPIUM],> 20 µM,> 20 µM
Cc1cccc(C(C)c2c[nH]cn2)c1C (stereo unspecified) [MEDETOMIDINE],> 20 µM,> 20 µM
CCCC1O[C@@H]2C[C@H]3[C@@H]4CCC5=CC(=O)C=C[C@]5(C)[C@H]4[C@@H](O)C[C@]3(C)[C@]2(C(=O)CO)O1 (stereo partly specified) [BUDESONIDE],> 20 µM,> 20 µM
"N=C(N)NC(=O)c1nc(Cl)c(N2CCCCCC2)nc1N [N,N-HEXAMETHYLENEAMILORIDE]",> 20 µM,> 20 µM
CN(C)S(=O)(=O)c1cc2c(c(Cl)c1Cl)OC(C(=O)O)C2 (stereo unspecified),> 20 µM,> 20 µM
O=C(O)c1nn(-c2ccc(S(=O)(=O)O)cc2)c(O)c1/N=N/c1ccc(S(=O)(=O)O)cc1,> 20 µM,> 20 µM
OC[C@H]1O[C@H](O[C@H]2O[C@H](CO)[C@@H](O)[C@H](O)[C@H]2O)[C@H](O)[C@@H](O)[C@@H]1O [TREHALOSE],> 20 µM,> 20 µM
c1ccc(C(CCN2CCCCC2)c2ccccc2)cc1,> 20 µM,> 20 µM
CCOc1ccccc1C(N)=O [ETHENZAMIDE],> 20 µM,> 20 µM
Cc1c(-c2ccnn2C)cc(C(=O)NCc2ccc(S(C)(=O)=O)cn2)c(=O)n1-c1cccc(C(F)(F)F)c1,> 20 µM,> 20 µM
CC(=O)O[C@]1(C(C)=O)CC[C@H]2[C@@H]3C=C(C)C4=CC(=O)CC[C@@H]4[C@H]3CC[C@@]21C [NOMEGESTROL ACETATE],> 20 µM,> 20 µM
COC(=O)c1ccc2c(c1)NC(=O)/C2=C(\Nc1ccc(N(C)C(=O)CN2CCN(C)CC2)cc1)c1ccccc1 [NINTEDANIB],> 20 µM,> 20 µM
OC[C@H]1NC[C@H](O)[C@@H](O)[C@@H]1O [DUVOGLUSTAT],> 20 µM,> 20 µM
CC(C)[C@](O)(c1ccc2cc(OC(F)F)c(OC(F)F)cc2c1)c1c[nH]nn1 [SEVITERONEL],> 20 µM,> 20 µM

Compound,IC50,IC50 (read-out: pIC50 (converted))
COc1ccc(C(Cl)=C(c2ccc(OC)cc2)c2ccc(OC)cc2)cc1 [CHLOROTRIANISENE],> 20 µM,> 20 µM
NC(C(=O)NC1C(=O)N2C(C(=O)O)=C(CSc3c[nH]nn3)CSC12)c1ccc(O)cc1 (stereo unspecified),> 20 µM,> 20 µM
N#Cc1cc(NC(=O)C(=O)O)c(Cl)c(NC(=O)C(=O)O)c1 [LODOXAMIDE],> 20 µM,> 20 µM
OCC(O)C(O)CO (stereo unspecified),> 20 µM,> 20 µM
C[C@@H](N)c1ccc(C(=O)Nc2ccnc3[nH]ccc23)cc1 [Y-39983],> 20 µM,> 20 µM
CNC(=O)COc1ccccc1OCC(O)CNC(C)(C)C (stereo unspecified) [CETAMOLOL],> 20 µM,> 20 µM
O=C1CCN2C(=C1C(=O)NC1CCN(CCCn3c(=O)[nH]c4ccccc43)CC1)Nc1ccccc12,> 20 µM,> 20 µM
COc1ccc2cccc(CCNC(C)=O)c2c1 [AGOMELATINE],> 20 µM,> 20 µM
CONC(=O)c1ccccc1Nc1cc(Nc2cc(C)nn2C(C)C)ncc1Cl [GSK-2256098],> 20 µM,> 20 µM
c1ccc(CN(CC2=NCCN2)c2ccccc2)cc1 [ANTAZOLINE],> 20 µM,> 20 µM
CC(=O)Nc1nnc(S(N)(=O)=O)s1 [ACETAZOLAMIDE],> 20 µM,> 20 µM
COc1c2ccoc2c(OC)c2oc(=O)ccc12 [ISOPIMPINELLIN],> 20 µM,> 20 µM
CC1CC(OC(=O)c2ccccc2O)CC(C)(C)C1 (stereo unspecified) [HOMOSALATE],> 20 µM,> 20 µM
CCCCNC(=O)NS(=O)(=O)c1ccc(C)cc1 [TOLBUTAMIDE],> 20 µM,> 20 µM
CN1C[C@H](CO)C=C2c3cccc4[nH]cc(c34)C[C@H]21,> 20 µM,> 20 µM
COc1cc(Nc2c(C#N)cnc3cc(OCCCN4CCN(C)CC4)c(OC)cc23)c(Cl)cc1Cl [BOSUTINIB],> 20 µM,> 20 µM
O=C(O)COCCN1CCN(C(c2ccccc2)c2ccc(Cl)cc2)CC1 (stereo unspecified) [CETIRIZINE],> 20 µM,> 20 µM
CN1CC(CN(CCN=[N+]=[N-])S(C)(=O)=O)=CC2c3cccc4[nH]cc(c34)CC21 (stereo unspecified),> 20 µM,> 20 µM
Nc1nonc1/C(=N/O)Nc1ccc(F)c(Cl)c1,> 20 µM,> 20 µM
CN(C)CCO/N=C(/C=C/c1ccc(O)cc1)c1ccccc1F [EPLIVANSERIN],> 20 µM,> 20 µM
CC(=O)O[C@H]1C(=O)[C@@]2(C)C([C@H](OC(=O)c3ccccc3)[C@]3(O)C[C@H](OC(=O)[C@H](O)[C@@H](NC(=O)c4ccccc4)c4ccccc4)C(C)=C1C3(C)C)[C@]1(OC(C)=O)CO[C@@H]1C[C@@H]2O (stereo partly specified),> 20 µM,> 20 µM
CC12CCC(=O)C=C1CCC1C3CC[C@](C)(O)C3(C)CC(O)[C@@]12F (stereo partly specified),> 20 µM,> 20 µM
CCC[C@]1(c2cccc(O)c2)CCN(C)C[C@@H]1C,> 20 µM,> 20 µM
